# Measured values from patent US4689227A, “Antibacterial composition” (Hoffmann-La Roche Inc., priority 1984, dated 1987).
# Where two headings read alike, the source gives them in different places.
# Legend:
# Assay type in all cases: cell-based
# [1] = tested on: Acinetobacter anitratus 5I-156; assay: In vitro activity (MIC), agar dilution test; details: Acinetobacter calcoaceticus, 5I156
# Excerpt: (§1) In the following Table there are presented for the composition in accordance with the invention the minimum inhibitory concentrations (MIC values in μ/ml) determined in in vitro comparative tests in the case of various infections with pathogenic microorganisms.
# (§2) In vitro activity of compound A and mecillinam (MEC) against various
# (§3) of bacteria (MIC μg/ml) Method: Agar dilution test with DST agar
# [2] = tested on: Citrobacter freundii 1385 b; assay: In vitro activity (MIC), agar dilution test
# Excerpt: as §1, §2, §3
# [3] = tested on: Citrobacter freundii 1982; assay: In vitro activity (MIC), agar dilution test
# Excerpt: as §1, §2, §3
# [4] = tested on: Enterobacter agglomerans 960; assay: In vitro activity (MIC), agar dilution test; details: Pantoea agglomerans
# Excerpt: as §1, §2, §3
# [5] = tested on: Enterobacter cloacae 163; assay: In vitro activity (MIC), agar dilution test
# Excerpt: as §1, §2, §3
# [6] = tested on: Enterobacter cloacae 5; assay: In vitro activity (MIC), agar dilution test
# Excerpt: as §1, §2, §3
# [7] = tested on: Enterobacter cloacae 908; assay: In vitro activity (MIC), agar dilution test
# Excerpt: as §1, §2, §3
# [8] = tested on: Enterobacter cloacae MK 1617; assay: In vitro activity (MIC), agar dilution test
# Excerpt: as §1, §2, §3
# [9] = tested on: Enterobacter cloacae MK 373; assay: In vitro activity (MIC), agar dilution test; details: MK373
# Excerpt: as §1, §2, §3
# [10] = tested on: Enterobacter cloacae P99; assay: In vitro activity (MIC), agar dilution test
# Excerpt: as §1, §2, §3
# [11] = tested on: Escherichia coli 5/9; assay: In vitro activity (MIC), agar dilution test
# Excerpt: as §1, §2, §3
# [12] = tested on: Pseudomonas aeruginosa 143724 R; assay: In vitro activity (MIC), agar dilution test
# Excerpt: as §1, §2, §3
# [13] = tested on: Pseudomonas aeruginosa 1920 E; assay: In vitro activity (MIC), agar dilution test
# Excerpt: as §1, §2, §3
# [14] = tested on: Pseudomonas aeruginosa 1937 E; assay: In vitro activity (MIC), agar dilution test
# Excerpt: as §1, §2, §3
# [15] = tested on: Pseudomonas aeruginosa 5646; assay: In vitro activity (MIC), agar dilution test
# Excerpt: as §1, §2, §3
# [16] = tested on: Pseudomonas aeruginosa 5748; assay: In vitro activity (MIC), agar dilution test
# Excerpt: as §1, §2, §3
# [17] = tested on: Enterobacter strains; assay: Activity and synergism against Enterobacter strains
# Excerpt: In the scope of the present invention it has been ascertained that compound A, which has hitherto not been considered as a combination partner for mecillinam, is especially well suited for such a combination.
# as §1
# [18] = single substance, DST agar (Oxoid), read-out: MIC
structure (smiles),measurement,setting,value
"NC(=O)OC[C@@H]1[C@H](NC(=O)/C(=N\OCC(=O)O)c2csc(N)n2)C(=O)N1S(=O)(=O)O [Compound A, (2S,3S)-3-((Z)-2-(2-amino-4-thiazolyl)-2-[(carboxymethoxy)imino]acetamido)-2-[(carbamoyloxy)-methyl]-4-oxo-1-azetidinesulphonic acid]",MIC,[1]; [18],16 µg/mL
same,MIC,[2]; [18],8 µg/mL
same,MIC,[3]; [18],4 µg/mL
same,MIC,[4]; [18],16 µg/mL
same,MIC,[5]; [18],32 µg/mL
same,MIC,[6]; [18],8 µg/mL
same,MIC,[7]; [18],32 µg/mL
same,MIC,"[8]; MK1617, single substance, DST agar (Oxoid), read-out: MIC",32 µg/mL
same,MIC,[9],4 µg/mL
same,MIC,[10],16 µg/mL
same,MIC,[11]; [18],2 µg/mL
same,MIC,[12]; [18],8 µg/mL
same,MIC,[13]; [18],4 µg/mL
same,MIC,[14]; [18],2 µg/mL
same,MIC,[15]; [18],8 µg/mL
same,MIC,[16],8 µg/mL
same,sensitivity of the strains,[17],only moderately sensitive
"CC1(C)S[C@@H]2[C@H](/N=C/N3CCCCCC3)C(=O)N2[C@H]1C(=O)O [MEC, mecillinam]",MIC,[1],> 256 µg/mL
same,MIC,[2],> 256 µg/mL
same,MIC,[3],> 256 µg/mL
same,MIC,[4],> 256 µg/mL
same,MIC,[5],> 256 µg/mL
same,MIC,[6],> 256 µg/mL
same,MIC,[7],> 256 µg/mL
same,MIC,[8]; MK1617,> 256 µg/mL
same,MIC,[9],> 256 µg/mL
same,MIC,[10],> 256 µg/mL
same,MIC,[11],> 256 µg/mL
same,MIC,[12],> 256 µg/mL
same,MIC,[13],> 256 µg/mL
same,MIC,[14],> 256 µg/mL
same,MIC,[15],> 256 µg/mL
same,MIC,[16],> 256 µg/mL
same,sensitivity of the strains,[17],resistant
